In US20050181360A1, “Assay for cell cycle modulators based on the modulation of cyclin d1 degradation in response to ionising radiation” (priority 2000, published 2005):
Residues, ends and D or L forms follow the SMILES beside them. *: point of attachment. Cbz = O=C(OCc1ccccc1)*

How the values were obtained:
Assay type in all cases: cell-based
[1] = test system: cyclin D1 protein in MCF-7 cells; assay: Effect of GSK3 inhibition by Li+ on IR-induced cyclin D1 degradation, immunoblot
Source text: Activation of the PI3K-PKB/Akt-GSK-3β pathway leads to cyclin D1 degradation through phosphorylation of threonine 286 of cyclin D1 by GSK3-β (Diehl et al., 1998). We therefore asked whether this pathway is also activated by IR and is involved in stress-induced degradation of cyclin D1. To investigate the co-immunoprecipitation of GSK3-β with CDK4-cyclin D1 complex, MCF-7 cells were subjected to treatment with proteasome inhibitor cbz-LLL and IR. 5% of the cell lysates or the immunoprecipitated protein complexes were separated on 10% SDS-PAGE and immunoblotted against cyclin-D1, CDK4, GSK3- and control JNK1 proteins. […] We used proteasome inhibitors to protect cyclin D1 from degradation thereby making a direct comparison between the different treatments possible. […] MCF-7 cells were treated with increasing concentrations of LiCl or control KCl and subsequently IR (20 Gy). Lysates were prepared after 2 hours, separated on 10% SDS-PAGE and immunoblotted sequentially with anti-cyclin D1 and anti-p53 antibodies. If this pathway is involved, Li^+ ions should inhibit cyclin D1 degradation.

[2] = test system: cyclin D1 protein in MCF-7 cells; assay: IR-induced cyclin D1 downregulation with proteasome inhibitor, Western blot; conditions: 5 mM cbz-LLL added after IR for two hours
Method: (§1) We then asked whether cyclin D1 protein stability was affected in response to IR using a pulse-chase experiment. MCF-7 cells were pulse-labelled with [^35S]-methionine and after IR chased with excess cold methionine for the indicated periods of time. Cyclin D1 protein was immunoprecipitated, separated on SDS-PAGE and detected by PhosphorImager. Cyclin D1 was destabilized immediately after IR; its half-life decreased from 40 minutes to less then 20 (FIG. 2). To ask whether the IR-induced degradation of cyclin D1 is mediated by the proteasome, MCF-7 cells were exposed to IR and subsequently the proteasome inhibitor cbz-LLL was added at increasing concentrations for two hours. After two hours, protein lysates were made, separated on 10% SDS PAGE, and Western blotted sequentially with antibodies against cyclin D1, p53 and cyclin E proteins.

[3] = test system: CDK2 activity precipitated from MCF-7/E6 cells; assay: Immunoprecipitation-kinase assay of CDK2 activity after IR (histone H1 substrate); conditions: two hours after IR, 10 mM cbz-LLL
Method: We next determined the CDK2 activity precipitated from MCF-7/E6 cells treated with IR. Cells were treated as above, except that cells were harvested after 2 hours. […] Identical results were obtained with parental MCF-7 cells. Therefore, protein degradation seems to be necessary for fast CDK2 kinase inhibition after genotoxic stress.
We then examined the CDK2 activity in response to IR of cells transiently over-expressing either D1TA or D1TA-L32A proteins. MCF-7/E6 cells were electroporated as above, irradiated (20 Gy) and harvested 2 hours later. CDK2 protein was immunoprecipitated and its kinase activity was examined using Histone 1 as a substrate (H1). CDK2 protein level was determined by immunoblotting (IB) of the same membrane with an antibody against CDK2.
To determine CDK2 activity, specific complexes from either MCF-7/Neo or MCF-7/E6 cells were immunoprecipitated from extracts using anti-CDK2 antibody (M-2). The beads were washed two additional times with kinase buffer (20 mM Tris HCl pH:7.4, 4 mM MgCl2 and 0.5 mM DTT) and kinase reaction was carried out in […] volume kinase buffer containing […] histone-H1 as a specific substrate, […] [γ-^32P]-ATP (5000 mCi/mmol, Amersham) and […] ATP at 37 C for 30 minutes. GSK3-β activity, was determined exactly as described in (van Weeren et al., 1998) using peptide PG-S1 as a substrate.

[4] = test system: cyclin D1 protein; assay: Cyclin D1 degradation in response to genotoxic agents
Method: as §1

[5] = test system: MCF-7 cells; assay: IR-induced degradation of transfected cyclin mutants, immunoblot; conditions: transfected MCF-7 cells, IR 20 Gy, two hours
Source text: To map the motif in cyclin D1 that mediates its degradation by genotoxic stress we analyzed several mutants of D1 by expression in MCF-7 cells. In all these experiments a co-transfected GFP construct was used to confirm equal transfection efficiencies between irradiated- and control cells. When cyclin D1 was mutated at a site within the cyclin box that is essential for activation of CDK4/6 (mutant K112E), D1 degradation by IR remained. The same result was obtained when the pRb family binding site in cyclin D1 was mutated (LxCxE mutant). We therefore conclude that D1 induced degradation by genotoxic stress is independent of both CDK4/6 kinase and pRb binding.
In the yeast Saccharomyces cerevisiae, degradation of the cyclin C homologue Ume3p can be induced by various stress signals such as heat, oxidative stress and ethanol shock (Cooper et al., 1997; Cooper et al., 1999). Three regions in Ume3p are required for stress-induced degradation, including a destruction box at the amino terminus (RxxL motif), the amino terminal region of the cyclin box and a PEST domain. […] Since cyclin D2 is not degraded by the genotoxic stress response we mutated cyclin D1 to the corresponding amino acid in cyclin D2. […] To further investigate this, we performed a pulse-chase experiment with the cyclin D1 L32A destruction box mutant to determine its half-life. […]

Molecule: [Cl-].[Li+] [Li^+ ions, LiCl]
- effect on cyclin D1 degradation by IR ([1]; increasing concentrations of LiCl, IR 20 Gy, lysates after 2 hours): no detectable effect
- cyclin D1 levels in non-irradiated cells ([1]; non-irradiated MCF-7 cells): increase

Molecule: CC(C)C[C@@H](C=O)NC(=O)[C@H](CC(C)C)NC(=O)[C@H](CC(C)C)NC(=O)OCc1ccccc1 [cbz-LLL] (Cbz-Leu-Leu-Leu-aldehyde)
- block of cyclin D1 downregulation by IR [2]: completely block
- effect on cyclin E protein levels [2]: without any effect
- IR-induced reduction of CDK2 activity [3]: blocked

Molecule: N.N.[Cl][Pt][Cl] [cis-platin]
- cyclin D1 degradation in response to genotoxic agent [4]: rapidly degraded

Molecule: K112E: cyclin D1 mutated within the cyclin box at a site essential for activation of CDK4/6
- degradation by IR [5]: remained

Molecule: T286A: cyclin D1 mutant in which the GSK3-β phosphorylation site was mutated
- degradation by IR [5]: fully responsive
